Measured values as given in US20070117836A1, “NAPTHALIMIDE DERIVATIVES, METHODS FOR THEIR PRODUCTION AND PHARMACEUTICAL COMPOSITIONS THEREFROM” (priority 2004, published 2007).
Like-named read-outs stand apart in the source and are kept apart here.

Columns and labels:
[1] = test system: Six human cancer cell lines (Hs683, U-373MG, HCT-15, LoVo, A549, MCF-7); test: MTT test of overall cell growth; format: cell-based
Experimental: In order to characterize the in vitro activity of the compounds of the invention, MTT tests were performed to indirectly and rapidly measure, i.e. within 5 days, the effect of such a compound on the overall cell growth. The test measures the number of metabolically active living cells that are able to transform the yellow product 3-(4,5-dimethylthiazol-2-yl)-2,5-diphenyl tetrazolium bromide (herein referred as MTT) into the blue product formazan dye by mitochondrial reduction. The amount of formazan obtained at the end of the experiment was measured by means of a spectrophotometer and is directly proportional to the number of living cells. Determination of the optical density enables a quantitative measurement of the effect of the investigated compounds as compared to the control condition (untreated cells) and/or to other reference compounds (in casu mitonafide and amonafide).
Six human cancer cell lines described in table 1 were used in the MTT tests. These cell lines cover four histological cancer types, being glioma, colon, lung and breast cancers. Cells were allowed to grow in 96-well micro-wells with a flat bottom with an amount of 100 μl of cell suspension per well with 1,000 to 4,000 cells/well depending on the cell type used. Each cell line was seeded in an MEM 5% serum culture medium.
The detailed experimental procedure was as follows: after a 24-hour period of incubation at 37° C., the culture medium was replaced by 100 μl of fresh medium in which the compound to be tested was dissolved at the following molar concentrations: 10^−9 M, 5.10^−9 M, 10^−8 M, 5.10^−8 M, 10^−7 M, 5.10^−7 M, 10^−6 M, 5.10^−6 M and 10^−5 M. Each experiment was repeated 6 times.
After 72 hours of incubation at 37° C. with (experimental conditions) or without (control condition) the compound to be tested, the medium was replaced by 100 μl MTT dissolved in RPMI at a concentration of 1 mg/ml. The micro-wells were subsequently incubated during 3 hours at 37° C. and centrifuged at 400 g during 10 minutes. MTT was removed and formazan crystals formed were dissolved in 100 μl DMSO. The micro-wells were shaken for 5 minutes and read on a spectrophotometer at wavelengths of 570 nm (maximum formazan absorbance) and 630 nm (background noise).
For each experimental condition, the mean optical density was calculated, as well as the percentage of remaining living cells in comparison with the control.

in vivo = details: mouse
Experimental: The maximum tolerated dose (herein after MTD) is defined as the maximum amount of a given drug which can be administered acutely (i.e. in one intraperitoneal, intravenous, subcutaneous or oral single dose) to healthy animals, i.e. animals not grafted with tumors. The survival times and weights of the animals are recorded up to 14 days post injection. Five different doses of each drug are used for the determination of the MTD index. […] Each experimental group comprised 3 mice for the determination of the MTD index (expressed in mg/kg).

[2] = Homo sapiens, 72 h, range of molar concentrations giving 50% inhibition of overall tumor cells growth, MTT, 72 hours incubation, six human cancer cell lines, read-out: IC50
[3] = range of molar concentrations giving 50% inhibition of overall tumor cells growth, MTT, 72 hours incubation, six human cancer cell lines, hydrochloride, read-out: IC50
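Wherever MTD is given: highest single acute dose (intraperitoneal, intravenous, subcutaneous or oral) tolerated by tumor-free mice, assessed across five dose levels per drug.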

Row | SMILES | IC50 [1, 2] [µM] | MTD at 14 days (in vivo) [mg/kg] | further results
1 | CN(C)CCN1C(=O)c2cccc3cc(NC(=O)NC(=O)CCl)cc(c23)C1=O [Example 1, 2-chloro-N-[({2-[2-(dimethylamino)ethyl]-1,3-dioxo-2,3-dihydro-1H-benzo[de]isoquinolin-5-yl}amino)carbonyl]acetamide] | 1 to 5 |  | 
2 | CN(C)CCN1C(=O)c2cccc3cc(NC(=O)NC(=O)c4ccccc4)cc(c23)C1=O [Example 3, N-[({2-[2-(dimethylamino)ethyl]-1.3-dioxo-2,3-dihydro-1H-benzo[de]isoquinolin-5-yl}amino)carbonyl]benzamide] | 1 to 5 |  | MTD at 14 days (in vivo; intraperitoneal): 80 mg/kg
3 | CCOC(=O)NC(=O)Nc1cc2c3c(cccc3c1)C(=O)N(CCN(C)C)C2=O [Example 4, ethyl({2-[2-(dimethylamino)ethyl]-1.3-dioxo-2,3-dihydro-1H-benzo[de]isoquinolin-5-yl}amino)carbonylcarbamate] | 1 to 5 | 80 | 
4 | CN(C)CCN1C(=O)c2cccc3cc(NC(=O)NCCCl)cc(c23)C1=O [Example 5, N-[2-[2-(dimethylamino)ethyl]-1,3-dioxo-2,3-dihydro-1H-benzo[de]isoquinolin-5-yl]-N′-(2-chloroethyl)urea] |  | > 160 | IC50 ([1]; Homo sapiens, 72 h): 1 to 5 µM
5 | CN(C)CCN1C(=O)c2cccc3cc(NC(=O)Nc4ccc(Cl)cc4)cc(c23)C1=O [Example 6, N-[2-[2-(dimethylamino)ethyl]-1,3-dioxo-2,3-dihydro-1H-benzo[de]isoquinolin-5-yl]-N′-(4-chlorophenyl)urea] | 1 to 5 |  | MTD at 14 days (in vivo; intraperitoneal): > 160 mg/kg
6 | CCOC(=O)c1ccc(NC(=O)Nc2cc3c4c(cccc4c2)C(=O)N(CCN(C)C)C3=O)cc1 [Example 8] | 1 to 5 |  | MTD at 14 days (in vivo; intraperitoneal): > 160 mg/kg
7 | CCOC(=O)CCC(=O)Nc1cc2c3c(cccc3c1)C(=O)N(CCN(C)C)C2=O [Example 11] | > 10 |  | MTD at 14 days (in vivo; intraperitoneal): > 160 mg/kg
8 | CN(C)CCN1C(=O)c2cccc3cc(NC(=O)CCCCl)cc(c23)C1=O [Example 12, 4-chloro-N-{2-[2-(dimethylamino)ethyl]-1,3-dioxo-2,3-dihydro-1H-benzo[de]isoquinolin-5-yl}butanamide] | > 10 |  | 
9 | CN(C)CCN1C(=O)c2cccc3cc(NC(=O)Cc4ccc(Cl)cc4)cc(c23)C1=O [Example 13, 2-(4-chlorophenyl)-N-{2-[2-(dimethylamino)ethyl]-1,3-dioxo-2,3-dihydro-1H-benzo[de]isoquinolin-5-yl}acetamide] | 5 to 10 |  | 
10 | CCOC(=O)CC(=O)Nc1cc2c3c(cccc3c1)C(=O)N(CCN(C)C)C2=O [Example 14, ethyl 3-({2-[2-(dimethylamino)ethyl]-1,3-dioxo-2,3-dihydro-1H-benzo[de]isoquinolin-5-yl}amino)-3-oxopropanoate] | > 10 |  | 
11 | COc1ccc(CC(=O)Nc2cc3c4c(cccc4c2)C(=O)N(CCN(C)C)C3=O)cc1 [Example 15, 2-(4-methoxyphenyl)-N-{2-[2-(dimethyl-amino)ethyl]-1,3-dioxo-2,3-dihydro-1H-benzo[de]isoquinolin-5-yl}acetamide] | 1 to 5 |  | 
12 | CN(C)CCN1C(=O)c2cccc3cc(NC(=O)C(Cl)(Cl)Cl)cc(c23)C1=O [Example 16, 2,2,2-trichloro-N-{2-[2-(dimethylamino)ethyl]-1,3-dioxo-2,3-dihydro-1H-benzo[de]isoquinolin-5-yl}acetamide] | > 10 | > 80 | 
13 | COc1cc(C=Nc2cc3c4c(cccc4c2)C(=O)N(CCN(C)C)C3=O)ccc1O [Example 18, 5-{[(1Z)-(4-hydroxy-3-methoxyphenyl)methylene]amino}-2-[2-(dimethylamino)ethyl]l-1H-benzo[de]isoquinoline-1,3(2H)-dione] | > 10 | > 80 | 
14 | COc1cc(/C=N\c2cc3c4c(cccc4c2)C(=O)N(CCN(C)C)C3=O)cc(OC)c1OC [Example 20, 2-[2-(dimethylamino)ethyl]-5-{[(1Z)-(3,4,5-trimethoxyphenyl)methylene]amino}-1H-benzo[de]isoquinoline-1,3(2H)-dione] | 5 to 10 | > 80 | 
15 | CN(C)CCN1C(=O)c2cccc3cc(NC(=S)Nc4ccc(OC(F)(F)F)cc4)cc(c23)C1=O [Example 21] | 1 to 5 |  | 
16 | CN(C)CCN1C(=O)c2cccc3cc(NC(=S)NCc4ccc5c(c4)OCO5)cc(c23)C1=O [Example 22] | > 10 | > 80 | 

Row | SMILES | IC50 [1, 2] [µM] | MTD at 14 days (in vivo) [mg/kg] | further results
17 | CN(C)CCN1C(=O)c2cccc3cc(NC(=S)Nc4ccc(Cl)cc4)cc(c23)C1=O [Example 26, N-[2-[2-(dimethylamino)ethyl]-1,3-dioxo-2,3-dihydro-1H-benzo[de]isoquinolin-5-yl]-N′-(4-chlorophenyl)thiourea] | > 10 | > 80 | 
18 | CN(C)CCN1C(=O)c2cccc3cc(NC(=S)Nc4ccc(C#N)cc4)cc(c23)C1=O [Example 27, N-[2-[2-(dimethylamino)ethyl]-1,3-dioxo-2,3-dihydro-1H-benzo[de]isoquinolin-5-yl]-N′-(4-cyanophenyl)thiourea] | > 10 | > 80 | 
19 | CN(C)CCN1C(=O)c2cccc3cc(N=Cc4ccc(C#N)cc4)cc(c23)C1=O [Example 28, 2-[2-dimethylamino)ethyl]-5-{[(1Z)-(4-cyano-phenyl)-5-ylmethylene]amino}-1H-benzo[de]isoquinolin-1,3(2H)-dione] | 5 to 10 | > 80 | 
20 | CN(C)CCN1C(=O)c2cccc3cc(NC(=O)C(F)(F)F)cc(c23)C1=O [Example 29, 2,2,2-trifluoro-N-{2-[2-(dimethylamino)ethyl]-1,3-dioxo-2,3-dihydro-1H-benzo[de]isoquinolin-5-yl}acetamide] | 5 to 10 |  | 
21 | COc1ccc(NC(=O)Nc2cc3c4c(cccc4c2)C(=O)N(CCN(C)C)C3=O)cc1 [Example 30] | 1 to 5 |  | 
22 | COc1ccc(OC(=O)Nc2cc3c4c(cccc4c2)C(=O)N(CCN(C)C)C3=O)cc1 [Example 31] |  |  | IC50 ([1]; Homo sapiens, 72 h): 10 µM
23 | CN(C)CCN1C(=O)c2cccc3cc(NC(=O)c4ccccc4)cc(c23)C1=O [Example 32, 2-[2-(dimethylamino)ethyl]-1,3-dioxo-2,3-dihydro-1H-benzo[de]isoquinolin-5-ylbenzamide] | > 10 |  | 
24 | CN(C)CCN1C(=O)c2cccc3cc(/N=C\c4cc(O)ccc4O)cc(c23)C1=O.Cl [Example 34, 2-[2-dimethylamino)ethyl]-5-{[(1Z)-(2,5-dihydroxyphenyl)methylene]amino}-1H-benzo[de]isoquinolin-1,3(2H)-dione hydrochloride] |  |  | IC50 ([1]; read-out: IC50): 1 to 5 µM
25 | CN(C)CCN1C(=O)c2cccc3cc(NCc4ccc5c(c4)OCO5)cc(c23)C1=O [Example 36, 5-{[1,3-benzodioxol-5-ylmethyl]amino}-N-(2-[2-dimethylamino)ethyl]-1H-benzo[de]isoquinolin-1,3(2H)-dione] | 5 to 10 | > 80 | 
26 | CN(C)CCN1C(=O)c2cccc3cc(NCc4ccccc4OC4OC(CO)C(O)C(O)C4O)cc(c23)C1=O (stereo not drawn) [Example 37] | 5 to 10 | > 80 | 
27 | CN(C)CCN1C(=O)c2cccc3cc(NCc4ccc5c(c4)OCO5)cc(c23)C1=O.Cl [Example 38, 5-{[1,3-benzodioxol-5-ylmethy]amino}-N-(2-[2-dimethylamino)ethyl]-1H-benzo[de]isoquinolin-1,3(2H)-dione hydrochloride] |  | > 80 | 
28 | CN(C)CCN1C(=O)c2cccc3cc(NCc4ccccc4OC4OC(CO)C(O)C(O)C4O)cc(c23)C1=O.Cl (stereo not drawn) [Example 39, 5-{[2-(2-phenoxy-)-6-hydroxymethyltetrahydro-pyran-3,4,5-triol)-5-ylmethyl]amino}-N-(2-[2-dimethylamino)ethyl]-1H-benzo [de]isoquinolin-1,3(2H)-dione hydrochloride] |  |  | IC50 [1, 3]: > 10 µM
29 | CN(C)CCN1C(=O)c2cccc3cc(NCc4ccccc4OC4OC(CO)C(O)C(O)C4O)cc(c23)C1=O.Cl (stereo not drawn) [Example 39] |  | > 80 | 
30 | CN(C)CCN1C(=O)c2cccc3cc(NCc4cc5c(cc4[N+](=O)[O-])OCO5)cc(c23)C1=O [Example 40] | > 10 | > 80 | 
31 | CN(C)CCN1C(=O)c2cccc3cc(NCc4cc5c(cc4[N+](=O)[O-])OCO5)cc(c23)C1=O.Cl [Example 41, 5-{[(benzo([1,3]dioxol-6-nitro)-5-ylmethyl]amino}-N-(2-[2-dimethylamino)ethyl]-1H-benzo[de]isoquinolin-1,3(2H)-dione hydrochloride] |  |  | IC50 [1, 3]: 5 to 10 µM
32 | CN(C)CCN1C(=O)c2cccc3cc(NCc4cc5c(cc4[N+](=O)[O-])OCO5)cc(c23)C1=O.Cl [Example 41] |  | > 80 | 
